Assay results: patent publication US8450090B2, “Compositions and methods for promoting fatty acid production in plants” (The Regents of the University of Colorado, a body corporate, priority 2009, dated 2013)

How the values were obtained:
[1] = test system: Schizochytrium; assay: Forward versus side scatter flow cytometry for oxamate-induced cell death; type: cell-based; settings: at higher concentrations of oxamate, FIG. 3
Procedure: Schizochytrium or chlamydomonas were harvested, counted, and resuspended at 10^6 cells/100 μl of PBS containing 2.5% fetal calf serum in preparation for flow cytometric analysis. Lysosensor dyes were used to detect fatty acids in glyoxosomes or oil droplets. Mitochondrial membrane potential was assessed using Mitotracker Red (CM-H2XROS, BD Pharmingen). The cells were resuspended in PBS containing 2.5% fetal calf serum containing a final concentration of 0.5 micromolar Mitotracker dye. The cells were incubated at 37° for 20 minutes, washed twice in PBS containing 2.5% fetal calf serum and analyzed flow cytometrically. Data were acquired on a Coulter Excel flow cytometer (Coulter, Hialeah, Fla.) and analyzed with FloJo software. […] Each sample population was classified for cell size (forward scatter) and complexity (side scatter), gated on a population of interest and evaluated using 30,000 cells.
Percents: Gating is a tool provided by FloJo software and allows for the analysis of a certain population of cells. […] After the gates were drawn, a percent value of dead cells was calculated by taking the number of dead cells divided by the number of total cells and multiplying by one hundred.
The bar graph in FIG. 3 depicts the increase in geometric mean of fluorescence in the treated group minus the untreated. […]

[2] = test system: cell wall UCP; settings: wild type strains of C. reinhardtii; prior studies, U.S. Pat. No. 7,105,718; cited from earlier work

Structure (SMILES) | percentage of cell death [1] | cell wall expression of UCP [2]
NC(=O)C(=O)O [Oxamate, oxamate] | significantly increased percentage of cell death | 
CNc1cnn(-c2cccc(C(F)(F)F)c2)c(=O)c1Cl [norflurazon] |  | did upregulate cell wall expression of UCP
